Reference: the supplement of paper PMC11451515

Key:
Conditions in all cases: 48 h
NOMO1 [1] = test: AUC of viability dose-response curve (% viability x log10 dose units); higher = less sensitive
Method in brief: (§1)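 Library compounds in DMSO were applied for 48 h at 37°C at 11 threefold doses (47 μM to 0.79 nM) to medium-adapted leukemia cells in 1536-well plates holding 500 or 1000 cells/well. Luminescence from CellTiter-Glo One was normalised plate by plate against DMSO and cell-free wells. Area under the curve came from trapezoidal integration of a log-logistic fit, after scaling curves that rose above full viability and discarding those that failed quality control. The fit had four parameters and used log10 doses.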

P12-Ichikawa [2] = test: as above
Method in brief: as §1

SEM cells [3] = test: as above
Method in brief: as §1

NOMO1 [4] = test: cell viability relative to DMSO control; higher = less cytotoxic
Method in brief: (§2)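 Viability is a per-plate percentage relative to DMSO wells, with cell-free wells as background. CellTiter-Glo One luminescence was read after 48 h at 37°C on 1536-well plates (5 μl) of NOMO1 or SEM (500 cells/well) or P12-Ichikawa (1000 cells/well) leukemia cells. The cells had been adapted for at least four passages in each medium and pin-dosed with library compounds in DMSO from 47 μM to 0.79 nM in 11 threefold steps.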

P12-Ichikawa [5] = test: as above
Method in brief: as §2

SEM cells [6] = test: as above
Method in brief: as §2

COCCCN1CCC(NC(=O)c2cc(Cl)c(N)c3c2OCC3)CC1
AUC of viability dose-response curve
Conditions | NOMO1 [1] | P12-Ichikawa [2] | SEM cells [3]
HPLM + 10% dialyzed FBS | 460 | 465 | 453
RPMI 5 mM glucose + 10% FBS | 456 | 467 | 451
RPMI 5 mM glucose + 10% dialyzed FBS | 468 | 473 | 454

cell viability [%]
Conditions | NOMO1 [4] | P12-Ichikawa [5] | SEM cells [6]
HPLM + 10% dialyzed FBS, 0.000781 µM | 116 | 114 | 86.8
HPLM + 10% dialyzed FBS, 0.00234 µM | 124 | 124 | 90.1
HPLM + 10% dialyzed FBS, 0.00702 µM | 127 | 127 | 115
HPLM + 10% dialyzed FBS, 0.0211 µM | 119 | 132 | 116
HPLM + 10% dialyzed FBS, 0.0632 µM | 147 | 132 | 129
HPLM + 10% dialyzed FBS, 0.19 µM | 137 | 134 | 123
HPLM + 10% dialyzed FBS, 0.569 µM | 133 | 134 | 114
HPLM + 10% dialyzed FBS, 1.71 µM | 150 | 133 | 119
HPLM + 10% dialyzed FBS, 5.12 µM | 142 | 146 | 147
HPLM + 10% dialyzed FBS, 15.4 µM | 137 | 132 | 123
HPLM + 10% dialyzed FBS, 46.1 µM | 110 | 124 | 114
RPMI 5 mM glucose + 10% FBS, 0.000781 µM | – | – | 110
RPMI 5 mM glucose + 10% FBS, 0.00234 µM | – | – | 115
RPMI 5 mM glucose + 10% FBS, 0.00702 µM | – | – | 116
RPMI 5 mM glucose + 10% FBS, 0.0211 µM | – | – | 122
RPMI 5 mM glucose + 10% FBS, 0.0632 µM | – | – | 149
RPMI 5 mM glucose + 10% FBS, 0.19 µM | – | – | 134
RPMI 5 mM glucose + 10% FBS, 0.569 µM | – | – | 130
RPMI 5 mM glucose + 10% FBS, 1.71 µM | – | – | 114
RPMI 5 mM glucose + 10% FBS, 5.12 µM | – | – | 147
RPMI 5 mM glucose + 10% FBS, 15.4 µM | – | – | 140
RPMI 5 mM glucose + 10% FBS, 46.1 µM | – | – | 111
RPMI 5 mM glucose + 10% dialyzed FBS, 0.000781 µM | – | – | 118
RPMI 5 mM glucose + 10% dialyzed FBS, 0.00234 µM | – | – | 119
RPMI 5 mM glucose + 10% dialyzed FBS, 0.00702 µM | – | – | 127
RPMI 5 mM glucose + 10% dialyzed FBS, 0.0211 µM | – | – | 114
RPMI 5 mM glucose + 10% dialyzed FBS, 0.0632 µM | – | – | 130
RPMI 5 mM glucose + 10% dialyzed FBS, 0.19 µM | – | – | 143
RPMI 5 mM glucose + 10% dialyzed FBS, 0.569 µM | – | – | 116
RPMI 5 mM glucose + 10% dialyzed FBS, 1.71 µM | – | – | 156
RPMI 5 mM glucose + 10% dialyzed FBS, 5.12 µM | – | – | 128
RPMI 5 mM glucose + 10% dialyzed FBS, 15.4 µM | – | – | 143
RPMI 5 mM glucose + 10% dialyzed FBS, 46.1 µM | – | – | 113

CCC(C)(Oc1ccc(C2(c3ccc(OC(C)(CC)C(=O)O)cc3)CCCCC2)cc1)C(=O)O (stereo not given)
AUC of viability dose-response curve
Conditions | NOMO1 [1] | P12-Ichikawa [2] | SEM cells [3]
HPLM + 10% dialyzed FBS | 475 | 458 | 471
RPMI 5 mM glucose + 10% FBS | 456 | 459 | 454
RPMI 5 mM glucose + 10% dialyzed FBS | 469 | 426 | 472

cell viability [%]
Conditions | NOMO1 [4] | P12-Ichikawa [5] | SEM cells [6]
HPLM + 10% dialyzed FBS, 0.000781 µM | 89.3 | 109 | 103
HPLM + 10% dialyzed FBS, 0.00234 µM | 107 | 106 | 96.8
HPLM + 10% dialyzed FBS, 0.00702 µM | 89.4 | 103 | 108
HPLM + 10% dialyzed FBS, 0.0211 µM | 108 | 110 | 103
HPLM + 10% dialyzed FBS, 0.0632 µM | 118 | 99.2 | 109
HPLM + 10% dialyzed FBS, 0.19 µM | 101 | 103 | 108
HPLM + 10% dialyzed FBS, 0.569 µM | 93.8 | 103 | 105
HPLM + 10% dialyzed FBS, 1.71 µM | 124 | 106 | 108
HPLM + 10% dialyzed FBS, 5.12 µM | 102 | 107 | 101
HPLM + 10% dialyzed FBS, 15.4 µM | 85.1 | 94 | 109
HPLM + 10% dialyzed FBS, 46.1 µM | 99.4 | 98.4 | 77.9
RPMI 5 mM glucose + 10% FBS, 0.000781 µM | 104 | 90.9 | 103
RPMI 5 mM glucose + 10% FBS, 0.00234 µM | 101 | 95.6 | 101
RPMI 5 mM glucose + 10% FBS, 0.00702 µM | 95.5 | 97 | 119
RPMI 5 mM glucose + 10% FBS, 0.0211 µM | 99.2 | 93.2 | 113
RPMI 5 mM glucose + 10% FBS, 0.0632 µM | 102 | 97.8 | 108
RPMI 5 mM glucose + 10% FBS, 0.19 µM | 89.4 | 97.2 | 111
RPMI 5 mM glucose + 10% FBS, 0.569 µM | 97.6 | 97.6 | 109
RPMI 5 mM glucose + 10% FBS, 1.71 µM | 97.7 | 101 | 91.3
RPMI 5 mM glucose + 10% FBS, 5.12 µM | 92.8 | 100 | 104
RPMI 5 mM glucose + 10% FBS, 15.4 µM | 84 | 92.1 | 102
RPMI 5 mM glucose + 10% FBS, 46.1 µM | 84.3 | 94.1 | 77.7
RPMI 5 mM glucose + 10% dialyzed FBS, 0.000781 µM | 100 | 87.5 | 117
RPMI 5 mM glucose + 10% dialyzed FBS, 0.00234 µM | 94.4 | 95.5 | 101
RPMI 5 mM glucose + 10% dialyzed FBS, 0.00702 µM | 111 | 89 | 99.1
RPMI 5 mM glucose + 10% dialyzed FBS, 0.0211 µM | 96.1 | 86.6 | 108
RPMI 5 mM glucose + 10% dialyzed FBS, 0.0632 µM | 99.8 | 96.8 | 107
RPMI 5 mM glucose + 10% dialyzed FBS, 0.19 µM | 94 | 92 | 102
RPMI 5 mM glucose + 10% dialyzed FBS, 0.569 µM | 107 | 82.1 | 118
RPMI 5 mM glucose + 10% dialyzed FBS, 1.71 µM | 103 | 91 | 110
RPMI 5 mM glucose + 10% dialyzed FBS, 5.12 µM | 87 | 89.1 | 114
RPMI 5 mM glucose + 10% dialyzed FBS, 15.4 µM | 93.9 | 86.7 | 113
RPMI 5 mM glucose + 10% dialyzed FBS, 46.1 µM | 101 | 85.3 | 86.6

Nc1nc(N)c2nc(CNc3ccc(C(=O)NC(CCC(=O)O)C(=O)O)cc3)cnc2n1 (stereo not given)
AUC of viability dose-response curve
Conditions | NOMO1 [1] | P12-Ichikawa [2] | SEM cells [3]
HPLM + 10% dialyzed FBS | 344 | 283 | 290
RPMI 5 mM glucose + 10% FBS | 414 | 313 | 394
RPMI 5 mM glucose + 10% dialyzed FBS | 286 | 272 | 247

cell viability [%]
Conditions | NOMO1 [4] | P12-Ichikawa [5] | SEM cells [6]
HPLM + 10% dialyzed FBS, 0.000781 µM | 105 | 103 | 104
HPLM + 10% dialyzed FBS, 0.00234 µM | 123 | 111 | 114
HPLM + 10% dialyzed FBS, 0.00702 µM | 118 | 110 | 110
HPLM + 10% dialyzed FBS, 0.0211 µM | 112 | 114 | 127
HPLM + 10% dialyzed FBS, 0.0632 µM | 97.5 | 59.2 | 57.2
HPLM + 10% dialyzed FBS, 0.19 µM | 70.4 | 47.7 | 36.6
HPLM + 10% dialyzed FBS, 0.569 µM | 49.8 | 31 | 39.5
HPLM + 10% dialyzed FBS, 1.71 µM | 57.1 | 31.8 | 45.6
HPLM + 10% dialyzed FBS, 5.12 µM | 57.4 | 44 | 48.6
HPLM + 10% dialyzed FBS, 15.4 µM | 61.4 | 39.6 | 41.8
HPLM + 10% dialyzed FBS, 46.1 µM | 65.2 | 29.7 | 46.5
RPMI 5 mM glucose + 10% FBS, 0.000781 µM | 97.1 | 103 | 111
RPMI 5 mM glucose + 10% FBS, 0.00234 µM | 95.9 | 103 | 115
RPMI 5 mM glucose + 10% FBS, 0.00702 µM | 103 | 103 | 120
RPMI 5 mM glucose + 10% FBS, 0.0211 µM | 102 | 123 | 110
RPMI 5 mM glucose + 10% FBS, 0.0632 µM | 92.9 | 71.2 | 92.2
RPMI 5 mM glucose + 10% FBS, 0.19 µM | 118 | 37.9 | 56.5
RPMI 5 mM glucose + 10% FBS, 0.569 µM | 103 | 46.6 | 83
RPMI 5 mM glucose + 10% FBS, 1.71 µM | 106 | 47 | 76.4
RPMI 5 mM glucose + 10% FBS, 5.12 µM | 112 | 38.5 | 99.7
RPMI 5 mM glucose + 10% FBS, 15.4 µM | 133 | 51.2 | 86.5
RPMI 5 mM glucose + 10% FBS, 46.1 µM | 117 | 61 | 87.5
RPMI 5 mM glucose + 10% dialyzed FBS, 0.000781 µM | 119 | 105 | 96.2
RPMI 5 mM glucose + 10% dialyzed FBS, 0.00234 µM | 117 | 95.5 | 103
RPMI 5 mM glucose + 10% dialyzed FBS, 0.00702 µM | 118 | 105 | 104
RPMI 5 mM glucose + 10% dialyzed FBS, 0.0211 µM | 131 | 112 | 104
RPMI 5 mM glucose + 10% dialyzed FBS, 0.0632 µM | 72.7 | 86 | 30.5
RPMI 5 mM glucose + 10% dialyzed FBS, 0.19 µM | 42.9 | 28.1 | 23.7
RPMI 5 mM glucose + 10% dialyzed FBS, 0.569 µM | 38.3 | 25.8 | 23.1
RPMI 5 mM glucose + 10% dialyzed FBS, 1.71 µM | 45 | 24 | 23.1
RPMI 5 mM glucose + 10% dialyzed FBS, 5.12 µM | 46 | 25.9 | 28.8
RPMI 5 mM glucose + 10% dialyzed FBS, 15.4 µM | 38.9 | 26.2 | 29.6
RPMI 5 mM glucose + 10% dialyzed FBS, 46.1 µM | 40.1 | 26.2 | 23.8
